Measured values as given in patent US9585877B2, “Methods of maintaining, treating or improving cognitive function” (Forum Pharmaceuticals, Inc., priority 2012, dated 2017).

Assays:
Type in all cases: in vivo, human
[1] = system: subjects with mild-to-moderate Alzheimer's disease; assay: Clinical study, ADAS-Cog-13
Method: (§1) A double-blind study of 3 doses of the Test Composition or placebo in subjects with mild-to-moderate Alzheimer's disease, with or without receiving a concomitant AChEI for 24 weeks (168 days) after a 7 day placebo run-in period.
(§2) Total number of subjects in the safety population was 409 subjects that were dosed once-daily with a dosing-capsule for a period of 168 days. The subjects dosed, and the particular dosing, included: 104 subjects dosed with Placebo capsule; and 305 subjects dosed with Test Compound (104 subjects with 0.3 mg capsules; 101 subjects with 1 mg capsules; and 100 subjects with 2 mg capsules).
(§3) The population included generally healthy male or female subjects, aged 50 to ≦85 years, with mild-to-moderate Alzheimer's disease, consistent with criteria defined by a Work Group of the National Institute of Neurological and Communicative Disorders and Stroke—Alzheimer's Disease and Related Disorders Association, of mild to moderate severity, with a Mini-Mental State Examination score (MMSE) 14 and ≦24, and a Clinical Dementia Rating Scale Sum of the Boxes (CDR-SB) score of 2. […] Subjects were required to be either receiving a stable dose of an AChEI (donepezil or rivastigmine) for at least 3 months before screening or not presently being treated with an AChEI or mementine for at least 30 days.
(§4) Subjects with mild to moderate Alzheimer's disease receiving stable treatment with an AChEI (donepezil or rivastigmine: ‘add-on’ subjects) or not receiving an AChEI (de novo subjects′) received 0.3, 1, or 2 mg doses of Test Composition or placebo for up to 24 weeks (168 days) of double-blind treatment, after a 7-day single-blind, placebo run-in period to assess study drug compliance. A follow-up telephone contact was conducted approximately 15 days after the last dose of study drug for questions regarding safety.
Cognitive Part of the Alzheimer's Disease Assessment Scale (ADAS-Cog-13)
The ADAS-Cog-13 is identical to the ADAS-Cog-11 assessment group (see above), with the addition of test items: Delayed Word Recall, and Digit (Number) Cancellation.
The ADAS-cog-13 total score ranges from 0 to 85 (higher scores indicate more severe impairment). A decrease from baseline indicates improvement.

[2] = system: subjects with mild-to-moderate Alzheimer's disease; assay: Clinical study, ADCS-ADL
Method: as §1, §2, §3, §4
Alzheimer's Disease Cooperative Study Group-Activities of Daily Living Scale (ADCS-ADL, or sometimes referred to as ADCS-ADL-23):
The ADCS-ADL-23 test employed herein is based on the procedure developed by Galasko D, Bennett D, Sano M, et al., Alz Dis Assoc Disord (1997) 11(2): S33-S39.
The ADCS-ADL test assesses the actual performance of specific actions and behaviors by a patient as observed by a caregiver/informant.

[3] = system: subjects with mild-to-moderate Alzheimer's disease; assay: Clinical study, Clinical Dementia Rating-Sum of Boxes (CDR-SB)
Method: as §1, §2, §3, §4
Clinical Dementia Rating-Sum of Boxes CDR-SB
The CDR-SB test employed herein is based on the procedure developed by Hughs C D, Berg L, Danziger W L, Coben L A, and Martin R L. “A new clinical scale for the staging of dementia”; Br J Psychiatry. 1982; 140:566-572, and provides an assessment of six (6) dimensions: Memory, Orientation, Judgment and Problem Solving, Community Affairs, Home and Hobbies, and Personal Care.
Each of the six CDR dimensions are scored separately with well-defined anchors from 0 to 3.0 (no impairment to severe illness). The total sum of boxes ranges from 0 to 18. Higher totals indicate more severe impairment. A decrease from baseline indicates improvement.

[4] = Add-On patients (stable donepezil or rivastigmine), 0.3 mg daily dose, Week 4
[5] = Add-On patients (stable donepezil or rivastigmine), 0.3 mg daily dose, Week 12
[6] = Add-On patients (stable donepezil or rivastigmine), 0.3 mg daily dose, Week 18
[7] = Add-On patients (stable donepezil or rivastigmine), 0.3 mg daily dose, Week 23
[8] = Add-On patients (stable donepezil or rivastigmine), 1 mg daily dose, Week 4
[9] = Add-On patients (stable donepezil or rivastigmine), 1 mg daily dose, Week 12
[10] = Add-On patients (stable donepezil or rivastigmine), 1 mg daily dose, Week 18
[11] = Add-On patients (stable donepezil or rivastigmine), 1 mg daily dose, Week 23
[12] = Add-On patients (stable donepezil or rivastigmine), 2 mg daily dose, Week 4
[13] = Add-On patients (stable donepezil or rivastigmine), 2 mg daily dose, Week 12
[14] = Add-On patients (stable donepezil or rivastigmine), 2 mg daily dose, Week 18
[15] = Add-On patients (stable donepezil or rivastigmine), 2 mg daily dose, Week 23
[16] = de novo patients, 0.3 mg daily dose, Week 4
[17] = de novo patients, 0.3 mg daily dose, Week 12
[18] = de novo patients, 0.3 mg daily dose, Week 18
[19] = de novo patients, 0.3 mg daily dose, Week 23
[20] = de novo patients, 1 mg daily dose, Week 4
[21] = de novo patients, 1 mg daily dose, Week 12
[22] = de novo patients, 1 mg daily dose, Week 18
[23] = de novo patients, 1 mg daily dose, Week 23
[24] = de novo patients, 2 mg daily dose, Week 4
[25] = de novo patients, 2 mg daily dose, Week 12
[26] = de novo patients, 2 mg daily dose, Week 18
[27] = de novo patients, 2 mg daily dose, Week 23

Cl.O.O=C(N[C@H]1CN2CCC1CC2)c1cc2cccc(Cl)c2s1 [Test Compound, (R)-7-chloro-N-(quinuclidin-3-yl)benzo[b]thiophene-2-carboxamide, hydrochloride, monohydrate]
ADAS-Cog-13 (Baseline was assigned the value of zero @ Week 0) ([1]; 0.3 mg daily dose, Week 4): −0.615
ADAS-Cog-13 (Baseline was assigned the value of zero @ Week 0) ([1]; 0.3 mg daily dose, Week 12): −0.5876
ADAS-Cog-13 (Baseline was assigned the value of zero @ Week 0) ([1]; 0.3 mg daily dose, Week 18): −0.3132
ADAS-Cog-13 (Baseline was assigned the value of zero @ Week 0) ([1]; 0.3 mg daily dose, Week 23): 0.0915
ADAS-Cog-13 (Baseline was assigned the value of zero @ Week 0) ([1]; 1 mg daily dose, Week 4): −0.8012
ADAS-Cog-13 (Baseline was assigned the value of zero @ Week 0) ([1]; 1 mg daily dose, Week 12): −1.2029
ADAS-Cog-13 (Baseline was assigned the value of zero @ Week 0) ([1]; 1 mg daily dose, Week 18): −0.3222
ADAS-Cog-13 (Baseline was assigned the value of zero @ Week 0) ([1]; 1 mg daily dose, Week 23): −0.0565
ADAS-Cog-13 (Baseline was assigned the value of zero @ Week 0) ([1]; 2 mg daily dose, Week 4): −0.0185
ADAS-Cog-13 (Baseline was assigned the value of zero @ Week 0) ([1]; 2 mg daily dose, Week 12): −1.4328
ADAS-Cog-13 (Baseline was assigned the value of zero @ Week 0) ([1]; 2 mg daily dose, Week 18): −1.6593
ADAS-Cog-13 (Baseline was assigned the value of zero @ Week 0) ([1]; 2 mg daily dose, Week 23): −1.6899
ADAS-Cog 13 Effect Size ([1]; 2 mg dose versus Placebo): 0.39
ADAS-Cog-13 (Baseline was assigned the value of zero @ Week 0) [1, 4]: −0.9985
ADAS-Cog-13 (Baseline was assigned the value of zero @ Week 0) [1, 5]: −0.2474
ADAS-Cog-13 (Baseline was assigned the value of zero @ Week 0) [1, 6]: −0.4557
ADAS-Cog-13 (Baseline was assigned the value of zero @ Week 0) [1, 7]: 0.2752
ADAS-Cog-13 (Baseline was assigned the value of zero @ Week 0) [1, 8]: −1.0728
ADAS-Cog-13 (Baseline was assigned the value of zero @ Week 0) [1, 9]: −0.0705
ADAS-Cog-13 (Baseline was assigned the value of zero @ Week 0) [1, 10]: 0.6239
ADAS-Cog-13 (Baseline was assigned the value of zero @ Week 0) [1, 11]: 1.4205
ADAS-Cog-13 (Baseline was assigned the value of zero @ Week 0) [1, 12]: −0.455
ADAS-Cog-13 (Baseline was assigned the value of zero @ Week 0) [1, 13]: −0.9708
ADAS-Cog-13 (Baseline was assigned the value of zero @ Week 0) [1, 14]: −1.8659
ADAS-Cog-13 (Baseline was assigned the value of zero @ Week 0) [1, 15]: −1.1679
ADAS-Cog-13 (Baseline was assigned the value of zero @ Week 0) [1, 16]: −0.545
ADAS-Cog-13 (Baseline was assigned the value of zero @ Week 0) [1, 17]: −1.0759
ADAS-Cog-13 (Baseline was assigned the value of zero @ Week 0) [1, 18]: −0.4416
ADAS-Cog-13 (Baseline was assigned the value of zero @ Week 0) [1, 19]: −0.3226
ADAS-Cog-13 (Baseline was assigned the value of zero @ Week 0) [1, 20]: −0.5942
ADAS-Cog-13 (Baseline was assigned the value of zero @ Week 0) [1, 21]: −2.311
ADAS-Cog-13 (Baseline was assigned the value of zero @ Week 0) [1, 22]: −1.2239
ADAS-Cog-13 (Baseline was assigned the value of zero @ Week 0) [1, 23]: −1.4169
ADAS-Cog-13 (Baseline was assigned the value of zero @ Week 0) [1, 24]: 0.3542
ADAS-Cog-13 (Baseline was assigned the value of zero @ Week 0) [1, 25]: −1.9196
ADAS-Cog-13 (Baseline was assigned the value of zero @ Week 0) [1, 26]: −1.5539
ADAS-Cog-13 (Baseline was assigned the value of zero @ Week 0) [1, 27]: −2.2283
ADCS-ADL (Baseline was assigned the value of zero @ Week 0) ([2]; 0.3 mg daily dose, Week 4): 0.07926
ADCS-ADL (Baseline was assigned the value of zero @ Week 0) ([2]; 0.3 mg daily dose, Week 12): −0.5757
ADCS-ADL (Baseline was assigned the value of zero @ Week 0) ([2]; 0.3 mg daily dose, Week 18): −0.6255
ADCS-ADL (Baseline was assigned the value of zero @ Week 0) ([2]; 0.3 mg daily dose, Week 23): −1.8992
ADCS-ADL (Baseline was assigned the value of zero @ Week 0) ([2]; 1 mg daily dose, Week 4): 0.509
ADCS-ADL (Baseline was assigned the value of zero @ Week 0) ([2]; 1 mg daily dose, Week 12): 0.9138
ADCS-ADL (Baseline was assigned the value of zero @ Week 0) ([2]; 1 mg daily dose, Week 18): 0.8306
ADCS-ADL (Baseline was assigned the value of zero @ Week 0) ([2]; 1 mg daily dose, Week 23): −0.3467
ADCS-ADL (Baseline was assigned the value of zero @ Week 0) ([2]; 2 mg daily dose, Week 4): 0.908
ADCS-ADL (Baseline was assigned the value of zero @ Week 0) ([2]; 2 mg daily dose, Week 12): 0.8426
ADCS-ADL (Baseline was assigned the value of zero @ Week 0) ([2]; 2 mg daily dose, Week 18): 0.8097
ADCS-ADL (Baseline was assigned the value of zero @ Week 0) ([2]; 2 mg daily dose, Week 23): 0.3166
ADCS-ADL Effect Size ([2]; 2 mg dose versus Placebo): 0.20
CDR-SB (Baseline was assigned the value of zero @ Week 0) ([3]; 0.3 mg daily dose, Week 4): 0.0026
CDR-SB (Baseline was assigned the value of zero @ Week 0) ([3]; 0.3 mg daily dose, Week 12): 0.0542
CDR-SB (Baseline was assigned the value of zero @ Week 0) ([3]; 0.3 mg daily dose, Week 18): 0.2325
CDR-SB (Baseline was assigned the value of zero @ Week 0) ([3]; 0.3 mg daily dose, Week 23): 0.4427
CDR-SB (Baseline was assigned the value of zero @ Week 0) ([3]; 1 mg daily dose, Week 4): −0.2365
CDR-SB (Baseline was assigned the value of zero @ Week 0) ([3]; 1 mg daily dose, Week 12): −0.0811
CDR-SB (Baseline was assigned the value of zero @ Week 0) ([3]; 1 mg daily dose, Week 18): −0.0424
CDR-SB (Baseline was assigned the value of zero @ Week 0) ([3]; 1 mg daily dose, Week 23): 0.1214
CDR-SB (Baseline was assigned the value of zero @ Week 0) ([3]; 2 mg daily dose, Week 4): −0.1361
CDR-SB (Baseline was assigned the value of zero @ Week 0) ([3]; 2 mg daily dose, Week 12): −0.1352
CDR-SB (Baseline was assigned the value of zero @ Week 0) ([3]; 2 mg daily dose, Week 18): −0.1368
CDR-SB (Baseline was assigned the value of zero @ Week 0) ([3]; 2 mg daily dose, Week 23): −0.088
CDR-SB Effect Size ([3]; 2 mg dose versus Placebo): 0.31
CDR-SB (Baseline was assigned the value of zero @ Week 0) [3, 4]: −0.2148
CDR-SB (Baseline was assigned the value of zero @ Week 0) [3, 5]: −0.1333
CDR-SB (Baseline was assigned the value of zero @ Week 0) [3, 6]: 0.0576
CDR-SB (Baseline was assigned the value of zero @ Week 0) [3, 7]: 0.4174
CDR-SB (Baseline was assigned the value of zero @ Week 0) [3, 8]: −0.2473
CDR-SB (Baseline was assigned the value of zero @ Week 0) [3, 9]: 0.1511
CDR-SB (Baseline was assigned the value of zero @ Week 0) [3, 10]: 0.2268
CDR-SB (Baseline was assigned the value of zero @ Week 0) [3, 11]: 0.476
CDR-SB (Baseline was assigned the value of zero @ Week 0) [3, 12]: −0.236
CDR-SB (Baseline was assigned the value of zero @ Week 0) [3, 13]: −0.2247
CDR-SB (Baseline was assigned the value of zero @ Week 0) [3, 14]: −0.1084
CDR-SB (Baseline was assigned the value of zero @ Week 0) [3, 15]: −0.1633
CDR-SB (Baseline was assigned the value of zero @ Week 0) [3, 16]: 0.0816
CDR-SB (Baseline was assigned the value of zero @ Week 0) [3, 17]: 0.1082
CDR-SB (Baseline was assigned the value of zero @ Week 0) [3, 18]: 0.27
CDR-SB (Baseline was assigned the value of zero @ Week 0) [3, 19]: 0.3392
CDR-SB (Baseline was assigned the value of zero @ Week 0) [3, 20]: −0.3161
CDR-SB (Baseline was assigned the value of zero @ Week 0) [3, 21]: −0.3858
CDR-SB (Baseline was assigned the value of zero @ Week 0) [3, 22]: −0.3763
CDR-SB (Baseline was assigned the value of zero @ Week 0) [3, 23]: −0.288
CDR-SB (Baseline was assigned the value of zero @ Week 0) [3, 24]: −0.133
CDR-SB (Baseline was assigned the value of zero @ Week 0) [3, 25]: −0.1475
CDR-SB (Baseline was assigned the value of zero @ Week 0) [3, 26]: −0.2625
CDR-SB (Baseline was assigned the value of zero @ Week 0) [3, 27]: −0.1239
